According to patent publication US6200994A, “1,4-Disubstituted cyclohexane derivatives for the treatment of depression” (American Home Products Corp, priority 1999, dated 2001):

Experiments:
human 5-HT1A receptor = target: T1, human 5-HT1A receptor (Homo sapiens, UniProt P08908); assay: [3H]8-OH-DPAT binding to human 5-HT1A receptor in CHO cell membranes
T1 construct: expressed in transfected cells
T1 sequence (P08908 1-422): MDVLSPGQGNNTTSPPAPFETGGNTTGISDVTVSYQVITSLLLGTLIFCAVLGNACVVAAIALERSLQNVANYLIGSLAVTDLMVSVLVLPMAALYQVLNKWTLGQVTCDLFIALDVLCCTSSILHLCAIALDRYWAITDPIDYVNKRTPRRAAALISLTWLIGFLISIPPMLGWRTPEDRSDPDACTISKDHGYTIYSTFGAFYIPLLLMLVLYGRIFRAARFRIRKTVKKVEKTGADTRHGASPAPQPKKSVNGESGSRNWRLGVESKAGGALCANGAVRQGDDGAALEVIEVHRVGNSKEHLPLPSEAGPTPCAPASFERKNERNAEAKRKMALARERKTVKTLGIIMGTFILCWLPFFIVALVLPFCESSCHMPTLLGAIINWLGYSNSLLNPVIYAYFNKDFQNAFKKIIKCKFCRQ
Method: The PCR cloning of the human 5-HT1A receptor subtype from a human genomic library has been described previously by Chanda et al., Mol. Pharmacol., 43:516 (1993). A stable Chinese hamster ovary cell line expressing the human 5-HT1A receptor subtype (5-HT1A.CHO cells) was employed throughout this study. Cells were maintained in DMEM supplemented with 10% fetal calf serum, non-essential amino acids and penicillin/ streptomycin.
Cells were grown to 95-100% confluency as a monolayer before membranes were harvested for binding studies. Cells were gently scraped from the culture plates, transferred to centrifuge tubes, and washed twice by centrifugation (2000 rpm for 10 min., 4° C.) in buffer (50 mM Tris; pH 7.5). The resulting pellets were aliquoted and maintained at -80.C. On the day of assay, the cells were thawed on ice, and resuspended in buffer. Studies were conducted using [^3 H]8-OH-DPAT as the radioligand. The binding assay was performed in 96 well microtiter plates in a final total volume of 250 μL of buffer. Comparison experiments were performed by using 7 concentrations of unlabelled drug and a final ligand concentration of 1.5 nM. Non-specific binding was determined in the presence of 10 μM 5HT. Saturation analysis was conducted by using [^3 H]8-OH-DPAT at concentrations ranging from 0.3-30 nM. […]

serotonin transporter = target: T2, serotonin transporter (Rattus norvegicus, UniProt P31652); assay: 3H-paroxetine binding, affinity for the serotonin transporter (ST) in frontal cortical membranes; design: species or system male Sprague-Dawley rats; settings: 1 h, @ 100 nM
T2 construct: frontal cortical membranes prepared from male Sprague-Dawley rats; from tissue; host or cells: frontal cortex membranes of male Sprague-Dawley rats
Method: A protocol similar to that used by Cheetham et al., Neuropharmacol., 32:737 (1993) was used to determine the affinity of compounds for the serotonin transporter. Briefly, frontal cortical membranes prepared from male Sprague-Dawley rats were incubated with ^3 H-paroxetine (0.1 nM) for 60 min at 25° C. All tubes also contained either vehicle, test compound (one to eight concentrations), or a saturating concentration of fluoxetine (10 μM) to define […]. All reactions were terminated by the addition of ice cold Tris buffer followed by rapid filtration using a Tom Tech filtration device to separate bound from free ^3 H-paroxetine. Bound radioactivity was quantitated using a Wallac 1205 Beta Plate® counter. Nonlinear regression analysis was used to determine IC50 values which were converted to Ki values using the method set forth in Cheng and Prusoff, Biochem. Pharmacol., 22:3099 (1973) (Ki=IC50/((Radioligand conc.)/(1+KD)).

T2 sequence (P31652 whole entry): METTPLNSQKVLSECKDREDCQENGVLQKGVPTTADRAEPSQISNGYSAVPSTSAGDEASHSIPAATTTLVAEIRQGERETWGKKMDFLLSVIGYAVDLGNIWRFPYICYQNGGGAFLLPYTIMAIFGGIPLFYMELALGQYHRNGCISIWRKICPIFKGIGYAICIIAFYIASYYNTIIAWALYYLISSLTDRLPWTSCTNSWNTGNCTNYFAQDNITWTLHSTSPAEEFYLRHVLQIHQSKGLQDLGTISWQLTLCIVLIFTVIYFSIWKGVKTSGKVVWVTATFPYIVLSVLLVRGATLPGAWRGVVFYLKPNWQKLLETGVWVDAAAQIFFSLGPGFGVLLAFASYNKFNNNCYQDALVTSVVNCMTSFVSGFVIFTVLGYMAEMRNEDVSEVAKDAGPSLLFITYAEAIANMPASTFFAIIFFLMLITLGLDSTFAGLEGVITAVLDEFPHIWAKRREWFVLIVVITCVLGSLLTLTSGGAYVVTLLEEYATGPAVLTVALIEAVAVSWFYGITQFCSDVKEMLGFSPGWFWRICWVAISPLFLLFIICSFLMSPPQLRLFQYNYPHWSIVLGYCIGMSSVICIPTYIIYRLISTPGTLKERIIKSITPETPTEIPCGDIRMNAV

Compound	inhibition at 1 µM (human 5-HT1A receptor; 0.5 h, @ 1000 nM, [3H]8-OH-DPAT) [%]	Ki (human 5-HT1A receptor) [nM]	inhibition at 0.1 µM (serotonin transporter) [%]
COc1ccsc1C1=CCN([C@H]2CC[C@@H](c3c[nH]c4ccc(F)cc43)CC2)CC1 [Example 1, 5-Fluoro-3-{(1,4-cis)-4-[4-(3-methoxy-thiophen-2-yl)-3,6-dihydro-2H-pyridin-1-yl]-cyclohexyl}-1H-indole]	48		
COc1ccsc1C1=CCN([C@H]2CC[C@H](c3c[nH]c4ccc(F)cc43)CC2)CC1 [Example 2, 5-Fluoro-3-{(1,4-trans)-4-[4-(3-methoxy-thiophen-2-yl)-3,6-dihydro-2H-pyridin-1-yl]-cyclohexyl}-1H-indole]		20.4	18
